“Also recorded” adds a separate entry of the source. Read-outs that look alike come from different tables or passages of the source. Starred links: 1 amine or outer side, 2 acyl side, 3 side chain; linkers in the order of their positions; H or OH if unused. Positions of bridges follow the written chain, without caps; N, C: chain ends. Non-standard residues stand in square brackets, D forms with d. Residues, ends and D or L forms follow the SMILES beside them. Chains are numbered I, II in the order given. Actinocin(9to1) = Cc1c2oc3c(C)ccc(C(=O)[*:1])c3nc-2c(C(=O)[*:2])c(N)c1=O; NMeV = CN[C@H](C(=O)O)C(C)C; Sar = CNCC(=O)O
What was measured:
U937 cells [1] = experiment: cells; type: cell-based, human
[2] = system: LPS-induced hepatotoxicity
isolated U937 nuclei [3] = experiment: DNA fragmentation assay using isolated U937 nuclei; type: cell-based, human; settings: concentrations as high as 0.1 mg/ml (FIG. 6A)
Experimental: U937 cells were labeled with ^3 H-thymidine by culturing overnight with isotope at 0.5 μCi/ml. The cells were pelleted, washed once, and the cytoplasmic membrane lysed by resuspending the cells in assay buffer (50 mM Tris, 250 mM sucrose 10 mM MgSO4, pH 7.5) plus 0.02% NP-40. Nuclei were then pelleted and resuspended in assay buffer at 1×10^6 /ml. The assay was set up in triplicate in flat bottom microtiter plates under sterile conditions. Nuclei (0.05 ml) were mixed with 0.05 ml of sample diluted in 50 mM Tris pH 7.5 or buffer alone to determine total counts. Plates were incubated for 5 h at 37° C. and then harvested by the addition of 0.1 ml of harvesting buffer (10 mM Tris, 10 mM EDTA, 0.3% Triton X-100, pH 7.5). Plates were harvested by filtration onto glass fiber paper and counted on a Packard Matrix 96 beta counter. Percent DNA fragmentation was calculated as follows: […]

[4] = system: TNF-induced hepatocyte apoptosis; experiment: TNF-induced hepatotoxicity in mice (serum transaminases); type: in vivo, Balb/c mice
Experimental: In this example the concept that a protease inhibitor such as DK120 may attenuate inappropriate apoptosis that causes tissue damage in systemic inflammatory response syndrome (SIRS) was tested. TNF-induced hepatocyte apoptosis in mice was performed as described by Leist et al. ((1995) J. Immunol. 154:1778-1786). Briefly, Balb/c mice were injected ip with […] murine TNF combined with […] Actinomycin D/mouse. Twelve h later, mice were anesthetized and bled from the heart to measure serum transaminase levels, which are standard clinically used indicators of liver damage. Mice that were treated with protease inhibitors were injected ip with these compounds 30 min. prior to TNF. Alanine aminotransferase (ALT) and aspartate aminotransferase (AST) were assayed using a commercially available kit (Sigma). […] However, treatment with DK120 caused a doss-dependent decrease in serum transaminase levels. […] However, a drug that nonspecifically blocks all apoptotic pathways that normally function to maintain homeostasis may not be clinically desirable. Subsequent studies were performed to determine if DK120 could also suppress hepatocyte apoptosis in response to a different stimulus.
^1 Mice (2 for each treatment) were injected ip +/- DK120 30 min prio
to TNF and Actinomycin D. Twelve h later serum transaminase levels were
(§1) To further explore the specificity of DK120 attenuation of TNF-induced hepatotoxicity, several compounds were tested that were found previously not to inhibit apoptotic protease proteolytic activity as measured against a synthetic substrate (data not shown). […] Therefore, the protection mediated by DK120 is not a property of any boron-containing molecule.
^1 Mice (3 for each treatment) were injected ip +/- the inhibitors 30
min prior to TNF and Actinomycin D. Twelve h later serum transaminase

apoptotic protease = experiment: Inhibition of apoptotic protease proteolytic activity against a synthetic substrate; type: biochemical, human; settings: data not shown
Experimental: Proteolytic activity was assayed using synthetic substrates selective for different known proteases. All assays were set up by adding 0.02 ml of sample (or known enzyme as a positive control) plus 0.18 ml of appropriate substrate dissolved in PBS PH 7.5 in triplicate in flat bottom microtiter plates, incubated for the indicated length of time at room temperature, and the OD at 405 nm measured using a plate reader.
Elastase-like activity was measured using N-methoxysuccinyl-ala-ala-pro-valp-nitroanilide (SEQ ID NO: 3) (MAAPV) at 0.25 mM as a substrate. For convenience and maximum sensitivity, these assays were routinely incubated 20 h to monitor protease purification. Under these conditions, the elastase dose response was linear up to a concentration of 6.0 μg/ml (OD of 1.0), see FIG. 3C. […] In order to quantitate the activity of the purified protease, identical assays were set up but kinetic readings of OD were taken every hour from 1-6 h. One unit of enzyme was calculated as the amount of enzyme that hydrolyzes 1.0 nmol substrate/h.
as §1

BT-20 = type: cell-based, human; settings: for % DNA fragmentation: BT-20, inhibitor 100 μM, UV 0.5 J/cm^2, 8 h, no inhibitor 44 ± 3.6; for Effect on UV-induced DNA fragmentation: summary of Table 2 (BT-20, 3T3, HL-60)
3T3 = experiment: Inhibition of UV-induced DNA fragmentation in 3T3 cells; type: cell-based, murine; settings: inhibitor 100 μM, UV 0.5 J/cm^2, 8 h, no inhibitor 38 ± 1.9
Experimental: To determine if these findings were unique to U937 or if other cell lines also require protease activity to undergo apoptosis, the effects of several inhibitors on apoptosis induced by UV light in the human mammary carcinoma, BT-20, the murine fibroblast cell line, 3T3, and the human myeloid leukemia, HL-60 were tested. For the BT-20 and 3T3 cells, target cells were pretreated for one hour (with or without inhibitors as indicated in the table) and exposed to UV light at 0.5 J/cm^2 and then incubated for eight hours prior to assessing DNA fragmentation. HL-60 cells were pretreated for one hour (with or without inhibitors as indicated in the table) and exposed to UV at 0.2 J/cm^2 and then incubated for two hours prior to assessing DNA fragmentation.
DNA fragmentation assays were carried out according to the protocol of Wright S. C., et al. (1,992) J. Cell. Biochem. 48, 344-355. Target cells were labeled with ^3 H-thymidine and plated in triplicate in flat bottom microtiter plates. Cells were incubated for the indicated length of time for each experiment in the presence of TNF or various inhibitors. In some experiments, cells were treated with UV light at 245 nm using a UV Crosslinker (Fisher Scientific). Assays were harvested and counted on a Packard matrix 96 beta counter. Percent DNA fragmentation was calculated as for the nuclear assay described in Example 3. In assays to test the effects of various inhibitors, the pH of extra wells containing assay buffer, target cells, and each inhibitor was always checked at the beginning and end of each assay to assure that the pH remained at 7.5.

isolated U937 nuclei [5] = experiment: Gel electrophoresis of DNA fragmentation in isolated U937 nuclei; type: cell-based, human
[6] = Binding to DK120 affinity column; settings: eluted with 0.1 M HCl
[7] = Chymotrypsin-like activity on SAAPP substrate; type: biochemical; settings: eluted from DK120 column
Experimental: To purify the apoptotic protease, a DK120 affinity column was prepared.
To measure chymotrypsin-like activity, N-succinyl-ala-ala-pro-phe p-nitroanilide (SEQ ID NO: 2) (SAAPP) at 0.1 mM was used as the substrate. Trypsin-like activity was measured using N-α-benzyloxycarbonyl-L-lysine thiobenzyl ester (BLT) at 0.2 mM plus 0.11 mM […].

U937 cells [8] = settings: cited from earlier work

## O=S(=O)(F)Cc1ccccc1 [PMSF, phenylmethylsulfonylfluoride]
U937 cells [1]
  Effect on DNA fragmentation induced by TNF or UV light: not inhibited; also recorded: without effect
  Inactive Compounds, Highest Concentration Tested (highest nontoxic concentration, inactive): 100 µM

## N[C@H]1C(O)O[C@H](CO)[C@H](O)[C@@H]1O (some centres unmarked) [Gln, galactosamine]
[2]; Gln 15 mg alone, survivors
  ALT: 137 +/- 33 U/ml
  AST: 67 +/- 4.6 U/ml
[2]; mouse, in vivo
  % Mortality: 0%

## Cc1ccc(S(=O)(=O)N[C@@H](CCCCN)C(=O)CCl)cc1 [TLCK, N-α-p-tosyl-L-lysine-chloromethyl ketone]
U937 cells [1]; U937 cells, result in words
  Effect on DNA fragmentation induced by TNF or UV light: without effect

## trypsin
Isolated U937 nuclei [3]
  DNA fragmentation in isolated nuclei by commercial proteases: completely inactive

## CC(=O)NC(Cc1ccccc1)C(=O)Oc1ccc2ccccc2c1 (racemic) [APNE, N-acetyl-DL-Phenylalanine β-naphthyl ester]
U937 cells [1]; Homo sapiens, U-937, read-out: IC50 (Active Concentration), TNF and UV-light induced apoptosis
  IC50: 40 µM
U937 cells [1]; U937 cells, result in words
  Effect on DNA fragmentation induced by TNF or UV light: blocked DNA fragmentation

## Aprotinin
[4]; Table 10, 10 mg/kg
  Protection from TNF-induced hepatotoxicity: neither of these inhibitors had much effect on ALT levels
[4]; mouse, in vivo
  ALT: 346 +/- 14 U/ml
Apoptotic protease
  Inhibition of apoptotic protease proteolytic activity: do not inhibit apoptotic protease

## N=C(N)c1ccccc1 [Benzamidine]
U937 cells [1]; U937 cells, result in words
  Effect on DNA fragmentation induced by TNF or UV light: without effect

## CC(=O)N[C@@H](CC(C)C)C(=O)N[C@@H](CC(C)C)C(=O)N[C@H](C=O)CCCNC(=N)N [Leupeptin]
U937 cells [1]; U937 cells, result in words
  Effect on DNA fragmentation induced by TNF or UV light: without effect
BT-20
  % DNA fragmentation: 42 ± 5.6%
  Effect on UV-induced DNA fragmentation: inactive
3T3
  % DNA fragmentation: 36 ± 2.6%

## CC(C)C[C@H](NC(=O)[C@@H](O)[C@H](N)Cc1ccccc1)C(=O)O [Bestatin]
U937 cells [1]; U937 cells, result in words
  Effect on DNA fragmentation induced by TNF or UV light: inactive

## α1-anti-protease: α1-anti-protease, protease inhibitor
Isolated U937 nuclei [5]; FIG. 5, lane 4
  DNA of nuclei treated with compound alone, gel: remained in high molecular weight form
Isolated U937 nuclei [5]; protease pretreated 1 hr (FIG. 5, lane 3)
  Effect on protease-induced DNA fragmentation, gel: DNA fragmentation was abolished

## Cc1c2oc3c(C)ccc(C(=O)N[C@@H]4C(=O)N[C@H](C(C)C)C(=O)N5CCC[C@H]5C(=O)N(C)CC(=O)N(C)[C@@H](C(C)C)C(=O)O[C@@H]4C)c3nc-2c(C(=O)N[C@@H]2C(=O)N[C@H](C(C)C)C(=O)N3CCC[C@H]3C(=O)N(C)CC(=O)N(C)[C@@H](C(C)C)C(=O)O[C@@H]2C)c(N)c1=O [Actinomycin D] (I: T[dV]P[Sar][NMeV] / II: T[dV]P[Sar][NMeV]; ester I:1-I:C, II:1-II:C; linker I:N-II:N via Actinocin(9to1))
[4]; Table 7, Actinomycin D 15 mg alone, 12 h, none 39
  ALT: 70 U/ml
[4]; Table 7, Actinomycin D 15 mg alone, 12 h, none 51
  AST: 47 U/ml
[4]; Table 10 Exp. #1, Actinomycin D 15 mg alone, 12 h
  ALT: 71 +/- 8.5 U/ml
[4]; Table 10 Exp. #2, Actinomycin D 15 mg alone, 12 h
  ALT: 139 +/- 29 U/ml

## CC(C)CC(NC(=O)C1OC1C(=O)O)C(=O)NCCCCN=C(N)N (centres unmarked) [E64]
U937 cells [1]; U937 cells, result in words
  Effect on DNA fragmentation induced by TNF or UV light: inactive
BT-20
  % DNA fragmentation: 41 ± 5.6%
  Effect on UV-induced DNA fragmentation: inactive
3T3
  % DNA fragmentation: 42 ± 2.7%

## CCN1C(=O)C=CC1=O [N-ethylmaleimide]
U937 cells [1]; U937 cells, result in words
  Effect on DNA fragmentation induced by TNF or UV light: inactive

## CC(C)C[C@H](NC(=O)[C@@H](NC(=O)N[C@@H](Cc1ccccc1)C(=O)O)[C@@H]1CCN=C(N)N1)C(=O)N[C@H](C=O)Cc1ccccc1 [Chymostatin]
U937 cells [1]; U937 cells, result in words
  Effect on DNA fragmentation induced by TNF or UV light: without effect

## COC(=O)[C@H](CCCNC(=N)N)NS(=O)(=O)c1ccc(C)cc1 [TAME, p-toluene-sulfonyl-L-arginine methyl ester]
U937 cells [1]; U937 cells, result in words
  Effect on DNA fragmentation induced by TNF or UV light: without effect

## chymotrypsin
Isolated U937 nuclei [3]
  DNA fragmentation in isolated nuclei by commercial proteases: completely inactive
[6]
  Binding to DK120 affinity matrix: efficiently bound
[7]
  Protease activity on SAAPP substrate after elution and neutralization: high levels of protease activity

## NC(=O)c1cccc(N)c1 [3-aminobenzamide]
U937 cells [8]
  Effect on apoptosis: blocked

## CCCCCCCCCCCCCC(=O)O[C@@H]1[C@@H](C)[C@@]2(O)[C@@H](C=C(CO)C[C@]3(O)C(=O)C(C)=C[C@@H]23)[C@@H]2C(C)(C)[C@]12OC(C)=O [Phorbol myristate acetate (PMA), Phorbol myristate acetate]
U937 cells [8]
  Effect on apoptosis: inhibits apoptosis induced by TNF or UV light

B1: leukocyte elastase: human leukocyte elastase obtained from Calbiochem (protein, UniProt P08246 30-267, looked up)
Neutrophil elastase: IVGGRRARPHAWPFMVSLQLRGGHFCGATLIAPNFVMSAAHCVANVNVRAVRVVLGAHNLSRREPTRQVFAVQRIFENGYDPVNLLNDIVILQLNGSATINANVQVAQLPAQGRRLGNGVQCLAMGWGLLGRNRGIASVLQELNVTVVTSLCRRSNVCTLVRGRQAGVCFGDSGSPLVCNGLIHGIASFVRGGCASGLYPDAFAPVAQFVNWIDSIIQRSEDNPCPHPRDPDPASRTH
Isolated U937 nuclei [3]
  DNA fragmentation in isolated nuclei by commercial proteases: cannot induce DNA fragmentation in U937 nuclei
Isolated U937 nuclei [3]; listed as elastase
  DNA fragmentation in isolated nuclei by commercial proteases: completely inactive

Source: US5952189A (priority 1997, dated 1999)
